Patent publication US6407306B1, “Process for extracting carotenes from carotene-containing materials” (priority 2000, dated 2002)
Each block holds one molecule with its values, some of them ahead of it.

Columns and labels:
[1] = Solubility of extractant in dense carbon dioxide; assay type: physicochemical; settings: 70° C. and 120 bar
[2] = cited from earlier work; for solubility relative to β-carotene: qualitative comparison

solubility in carbon dioxide [1]: 9 wt. %
Compound: O=CN1CCOCC1 [4-formylmorpholine]

Compound: CC1=CCCC(C)(C)C1/C=C/C(C)=C/C=C/C(C)=C/C=C/C=C(C)/C=C/C=C(C)/C=C/C1=C(C)CCCC1(C)C (stereo not drawn) [α-Carotene]
solubility relative to β-carotene [2]: more readily soluble than β-carotene

Compound: CC1=C(/C=C/C(C)=C/C=C/C(C)=C/C=C/C=C(C)/C=C/C=C(C)/C=C/C2=C(C)CCCC2(C)C)C(C)(C)CCC1 [β-Carotene]
solubility in benzene ([2]; benzene, 19° C.): 0.35 grams per 100 cm^3 of solvent | solubility in carbon disulfide ([2]; carbon disulfide, 19° C.): 5.5 grams per 100 cm^3 of solvent | solubility in ethanol ([2]; ethanol, 19° C.): 0.008 grams per 100 cm^3 of solvent | solubility in petroleum ether ([2]; petroleum ether, 19° C.): 0.1 grams per 100 cm^3 of solvent

Compound: CC(C)=CCC/C(C)=C/C=C/C(C)=C/C=C/C(C)=C/C=C/C=C(C)/C=C/C=C(C)/C=C/C1=C(C)CCCC1(C)C [γ-Carotene]
solubility relative to β-carotene [2]: more readily soluble than β-carotene
